# US20250098678A1, “METHOD OF CONTROLLING FUNGI” (UPL CORPORATION LIMITED, priority 2022, published 2025)
# Columns and labels:
# Pythium ultimum = experiment: Anti-fungal activity of treated seeds against Pythium ultimum (field trials, patch score); format: in vivo; settings: for P. ultimum patch score: seed treatment, field trial
# Excerpt: Example 2: Evaluation of Anti-Fungal Activity of Maize Seeds Treated with Cyazofamid Against Pythium ultimum The present inventors have determined the % pathogen control of Pythium ultimum control in […] treated with cyazofamid in field trials. The treatments employed and the results have been depicted in table 3 below. [table]
# Plasmopara halstedii = experiment: Anti-fungal activity of treated sunflower seeds against Plasmopara halstedii (seed treatment, % incidence); format: in vivo; settings: for % Incidence: sunflower seed treatment, 12 DAS, inoculated with P. halstedii
# Procedure: Example 1: Evaluation of Anti-Fungal Activity of Sunflower Seeds Treated with Cyazofamid Against Plasmopara halstedii One tray for each treatment was filled with perlite that was covered with two layers of watered paper. Treated seeds were placed between the layers under sterile conditions and incubated at 22° C. to 24° C., 100% relative humidity (RH) for 48 h. Zoosporangia from cotyledons of sunflower plants previously infected by an isolate of P. halstedii were removed with deionized water. The suspension was filtered through two layers of sterile cheesecloth and the inoculum concentration was adjusted to 2×10^5 zoosporangia/ml. Treated and germinated seeds were immersed in the zoosporangial suspension for 5 hours. Bioassays were then designed and conducted under controlled growth conditions. Five pots per treatment were filled with perlite and nine sunflower seeds were sown in each pot. Plants were grown at 19° C., 70-100% relative humidity and a 10 h dark/14 h light photoperiod for 12 days. The seed arrangement was made as 50 seeds/plot (pot10×10 cm). The treatments used are depicted below. [table] The % incidence of fungal disease caused by Plasmapora halstedii was observed 12 DAS (days after sowing seeds).
SMILES,"P. ultimum patch score indicating the severity of the fungal disease (Pythium ultimum; compared to the untreated control, result in words)","P. ultimum patch score (Pythium ultimum; 10 g.ai/100 kg, 25 ml/100 kg seeds)","P. ultimum patch score (Pythium ultimum; 20 g.ai/100 kg, 50 ml/100 kg seeds)","P. ultimum patch score (Pythium ultimum; 30 g.ai/100 kg, 75 ml/100 kg seeds)","P. ultimum patch score (Pythium ultimum; 50 g.ai/100 kg, 125 ml/100 kg seeds)","P. ultimum patch score (Pythium ultimum; 100 g.ai/100 kg, 250 ml/100 kg seeds)",% Incidence (Plasmopara halstedii; application rate 50 g/100/kg),% Incidence (Plasmopara halstedii; application rate 100 g/100/kg),% Incidence (Plasmopara halstedii; application rate 35 g/100/kg),% Incidence (Plasmopara halstedii; application rate 60 g/100/kg),"occurrence of fungal disease (Plasmopara halstedii; treated sunflower seeds, result in words)"
"Cc1ccc(-c2c(Cl)nc(C#N)n2S(=O)(=O)N(C)C)cc1 [Cyazofamid, 4-chloro-2-cyano-N,N-dimethyl-5-p-tolylimidazole-1-sulfonamide]",significantly low,1.5 b,1.5 b,1.5 b,1.5 b,1.3 b,0%,0%,,,
COCC(=O)N(c1c(C)cccc1C)C(C)C(=O)OC (centres unmarked) [Metalaxyl],,,,,,,,,53.49%,62.24%,high
